# US6541523B2, “Methods for treating or preventing fibromyalgia using very low doses of cyclobenzaprine” (Vela Pharmaceuticals, Inc., priority 1999, dated 2003)
# Like-named read-outs stand apart in the source and are kept apart here.
# Experiments:
# [1] = tested on: patients with fibromyalgia
# Text: Quantification of improvement may be measured according to methods known in the art. For example, pain may be measured using tender point count, the McGill Pain Questionnaire, the Arthritis Impact Measurement Scales (AIMS), the Sickness Impact Profile (SIP), the Health Assessment Questionnaire (HAQ) functional disability index, the Symptom Checklist-90R, and dolorimeter scores. […] (Alarcon, Graciela, et al., “Advances in the Treatment of Fibromyalgia: Current Status and Future Directions”, Am. J. Med. Sciences, 315:397-404 (1998).)
# (§1) The quality of sleep (“sleep disturbance”) may be determined, inter alia, by asking the patient if he/she awakened tired or nonrefreshed “never,” “seldom,” “often or usually,” or “always.” Replies of “often or usually” or “always” may be scored as positive and other replies as negative. Patients reports of well-being or relief from “zombie” or “spacey” feelings, feelings of being “run down,” and having difficultly concentrating during waking hours are indications of better quality of sleep or deep, refreshing sleep.
# They were on a dose of ⅓ tablet of cyclobenzaprine (3 33 mg).
# patient four, a person homemaker, presented with complaints of chest pain previously attributed to their known history of mitral valve prolapse. They also complained of a several year history of fatigue.
# patient two, a active grandparent, presented with the new onset of cervical and lumbar muscular pains associated with poor quality sleep and fatigue. The patient was diagnosed with fibromyalgia.
# patient seven, a person homemaker, presented with complaints of diffuse pain and fatigue.
# patient three, a person homemaker, presented with complaints of right trapezius spasm. They had recently been started on paroxetine, 20 mg p.o. qd for mild depression, and had also noted disrupted sleep quality with frequent awakening with resultant fatigue and daytime somnolence. […] They were diagnosed with fibromyalgia and was begun on cyclobenzaprine 10 mg p.o. qHS for the diagnosis of fibromyalgia and possible sleep disturbance due to the SSRI paroxetine.
# patient one, a person homemaker, had recently given birth to a healthy baby, and in during the later stages of pregnancy and in the post-partem period noted fatigue and exhaustion associated with multiple areas of muscular soreness.
# patient six, a executive, presented with complaints of “burning pains” in their muscles, associated with sleep disturbance with frequent awakening and resultant fatigue.
# patient five, a executive, had been tried on multiple medications by a “fibromyalgia specialist,” who according to the patient had performed over $2,000 in blood tests, diagnosing “yeast infection in the blood” and multiple allergies.
# [2] = tested on: patients with sleep disturbance; details: single patient report
# Text: as §1
# [3] = tested on: cyclobenzaprine-treated patients; details: cited from earlier work
# fibromyalgia patients [4] = details: twenty to forty mgs per day; twelve fibromyalgia patients; cited from earlier work
# fibromyalgia patients [5] = details: cited from earlier work
# fibromyalgia patients [6] = details: five mgs per day; some fibromyalgia patients; anecdotal; cited from earlier work
# [7] = ⅓ tablet (3 33 mg), single patient report
compound,measurement,setting,value
CNCCC=C1c2ccccc2CCc2ccccc21 [nortriptyline],Response to trial of nortriptyline,"[1]; fibromyalgia patient not helped by cyclobenzaprine 2.5 mg, dose not given",did well
"CN(C)CCC=C1c2ccccc2C=Cc2ccccc21 [cyclobenzaprine, 3-(5H-Dibenzo[a,d]cyclohepten-5-ylidene)-N,N-dimethyl-1-propanamine]",Symptom response,"[1]; 10 mg p.o. qHS, single patient report",helping their muscular pains
same,Course after stopping cyclobenzaprine,"[1]; discontinuation of ¼ tablet (2.5 mg), single patient report",immediate return of all of their previous symptoms
same,"Effect on sleep disturbance, fatigue and diffuse pain","[1]; less than 5 mg/day qHS, applicant's summary for many patients",surprisingly effective at treating the sleep disturbance
same,Symptom response,"[1]; ½ tablet (5 mg) p.o. qHS, single patient report",symptoms abated
same,Side effects,[1]; [7],no adverse effects
same,Symptom response,[1]; [7],alleviated their symptoms
same,Sleep and energy response,[2]; ¼ to ½ tablet (2.5-5 mg),"improved sleep and increased energy, with resolution of their daytime somnolence"
same,Side effects,[2]; ½ tablet (5 mg),“grogginess” during the day
same,Less common side effects,[3]; cyclobenzaprine treatment,"nausea, tiredness, constipation, blurred vision, nervousness, confusion, abdominal pain and discomfort"
same,Organ toxicity,[3]; recommended doses,No indications of organ toxicity
same,Toxic effects on overdose,[3]; three individuals who ingested between 260 to 900 mg,Toxic effects were reported
same,Alpha non-REM EEG sleep anomaly and mood ratings,fibromyalgia patients [4],did not favorably change
same,Pain (tender point count and dolorimetry),fibromyalgia patients [4],did not experience decreased pain
same,Difference in efficacy between regimens,fibromyalgia patients [5]; 10 mg/day vs 30 mg/day,no significant difference in efficacy
same,"Tender points, quality of sleep and other symptoms",fibromyalgia patients [5]; 10 mg/day,"decline in the number of tender points and improvement in the quality of sleep, anxiety, fatigue, irritable bowel syndrome and stiffness"
same,"Tender points, quality of sleep and other symptoms",fibromyalgia patients [5]; 30 mg/day,"decline in the number of tender points and improvement in the quality of sleep, anxiety, fatigue, irritable bowel syndrome and stiffness"
same,Response to treatment,fibromyalgia patients [6],responded “favorably”
